Experimental data published in ChEMBL document CHEMBL5321233, “Biological activity of 1,2,3-triazole-2-amino-1,4-naphthoquinone derivatives and their evaluation as therapeutic strategy for malaria control” (Eur J Med Chem, 2023).
Activity calls are given as the source filed them. No cut-off for these calls is given here.

Legend:
[1] = Acute toxicity in Albino Swiss mouse assessed as behavioural toxicity at 300 mg/kg, po administered as single dose measured after 14 days; format: organism-based; details: in vivo, 336 h, time 14 day
[2] = Acute toxicity in Albino Swiss mouse assessed as podocytes with discrete thickening of basal membrane in kidney at 300 mg/kg, po administered as single dose measured after 14 days by H and E staining based analysis; format: organism-based; details: in vivo, 336 h, time 14 day
Plasmodium falciparum [3] = assay: Induction of morphological changes in chloroquine-resistant Plasmodium falciparum W2 at early trophozoite stage assessed as development-limiting of plasma membrane by TEM analysis; format: functional, organism-based
[4] = Acute toxicity in Albino Swiss mouse assessed as change in diarrhea at 300 mg/kg, po administered as single dose measured after 14 days; format: organism-based; details: in vivo, 336 h, time 14 day
[5] = Acute toxicity in Albino Swiss mouse assessed as granular degeneration in liver at 300 mg/kg, po administered as single dose measured after 14 days by H and E staining based analysis; format: organism-based; details: in vivo, 336 h, time 14 day
HepG2 = assay: Cytotoxicity against human HepG2 cells incubated for 24 hrs by MTT assay; format: functional
[6] = Acute toxicity in Albino Swiss mouse assessed as signs of pallor at 300 mg/kg, po administered as single dose measured after 14 days; format: organism-based; details: in vivo, 336 h, time 14 day
[7] = Acute toxicity in Albino Swiss mouse assessed as distribution of hemosiderophages in parenchyma of spleen at 300 mg/kg, po administered as single dose measured after 14 days by H and E staining based analysis; format: organism-based; details: in vivo, 336 h, time 14 day
[8] = Cytotoxicity against African green monkey Vero cells incubated for 24 hrs by MTT assay; format: toxicity, cell-based; details: chlorocebus sabaeus
[9] = Acute toxicity in Albino Swiss mouse assessed as signs of toxicity at 300 mg/kg, po administered as single dose measured after 14 days; format: organism-based; details: in vivo, 336 h, time 14 day
Plasmodium falciparum [10] = assay: Induction of morphological changes in chloroquine-resistant Plasmodium falciparum W2 at early trophozoite stage assessed as development-limiting of parasitophorous vacuole membrane by TEM analysis; format: functional, organism-based
[11] = Acute toxicity in Albino Swiss mouse assessed as congestion of globular center vein in liver at 300 mg/kg, po administered as single dose measured after 14 days by H and E staining based analysis; format: organism-based; details: in vivo, 336 h, time 14 day
[12] = Acute toxicity in Albino Swiss mouse assessed as congestion of hepatic portal vein in liver at 300 mg/kg, po administered as single dose measured after 14 days by H and E staining based analysis; format: organism-based; details: in vivo, 336 h, time 14 day
[13] = Acute toxicity in Albino Swiss mouse assessed as change in motor function at 300 mg/kg, po administered as single dose measured after 14 days; format: organism-based; details: in vivo, 336 h, time 14 day
[14] = Acute toxicity in Albino Swiss mouse assessed as recurrent tubules with loss of polarity in kidney at 300 mg/kg, po administered as single dose measured after 14 days by H and E staining based analysis; format: organism-based; details: in vivo, 336 h, time 14 day
[15] = Acute toxicity in Albino Swiss mouse assessed as signs of hyperemia at 300 mg/kg, po administered as single dose measured after 14 days; format: organism-based; details: in vivo, 336 h, time 14 day
[16] = Acute toxicity in Albino Swiss mouse assessed as atrophic glomerulus with congested capillaries in kidney at 300 mg/kg, po administered as single dose measured after 14 days by H and E staining based analysis; format: organism-based; details: in vivo, 336 h, time 14 day
[17] = Hemolytic activity in human red blood cells assessed as hemoglobin release at 250 to 15.6 uM incubated for 60 mins by spectrophotometry; format: toxicity, cell-based, Erythrocyte; details: dose 250-15.6 µM, read-out: Activity
[18] = Acute toxicity in Albino Swiss mouse assessed as change in relative weight of spleen at 300 mg/kg, po administered as single dose measured after 14 days; format: organism-based; details: in vivo, 336 h, time 14 day
[19] = Acute toxicity in Albino Swiss mouse assessed as change in relative weight of kidney at 300 mg/kg, po administered as single dose measured after 14 days; format: organism-based; details: in vivo, 336 h, time 14 day
[20] = Acute toxicity in Albino Swiss mouse assessed as contortions at 300 mg/kg, po administered as single dose measured after 14 days; format: organism-based; details: in vivo, 336 h, time 14 day
Plasmodium falciparum [21] = assay: Induction of morphological changes in chloroquine-resistant Plasmodium falciparum W2 at early trophozoite stage assessed as degenerating organelles by TEM analysis; format: functional, organism-based
[22] = Toxicity in Albino Swiss mouse infected with Plasmodium berghei ANKA assessed as animal survival at 30 mg/kg, po administered for 4 consecutive days measured for 14 days relative to control; format: organism-based; details: in vivo, time 14 day
Plasmodium falciparum [23] = assay: Induction of morphological changes in chloroquine-resistant Plasmodium falciparum W2 at early trophozoite stage assessed as rounded nucleus with degenerative changes by TEM analysis; format: functional, organism-based
[24] = Acute toxicity in Albino Swiss mouse assessed as change in relative weight of liver at 300 mg/kg, po administered as single dose measured after 14 days; format: organism-based; details: in vivo, 336 h, time 14 day
Plasmodium berghei [25] = assay: Antimalarial activity against Plasmodium berghei ANKA infected in Albino Swiss mouse assessed as reduction in parasitemia at 30 mg/kg, po administered for 4 consecutive days measured after day 5 relative to control; format: functional; parameters: scale not given: the % may be the effect or the level left; details: time 5 day
[26] = Selectivity index, ratio of CC50 for African green monkey Vero cells to IC50 for chloroquine-resistant Plasmodium falciparum W2 infected in human erythrocytes; format: toxicity, cell-based; details: read-out: Ratio CC50/IC50
[27] = Acute toxicity in Albino Swiss mouse assessed as hyperplasia in spleen at 300 mg/kg, po administered as single dose measured after 14 days by H and E staining based analysis; format: organism-based; details: in vivo, 336 h, time 14 day
[28] = Acute toxicity in Albino Swiss mouse assessed as mesangial cells reduction in kidney at 300 mg/kg, po administered as single dose measured after 14 days by H and E staining based analysis; format: organism-based; details: in vivo, 336 h, time 14 day
[29] = Acute toxicity in Albino Swiss mouse assessed as signs of cyanosis at 300 mg/kg, po administered as single dose measured after 14 days; format: organism-based; details: in vivo, 336 h, time 14 day
[30] = Acute toxicity in Albino Swiss mouse assessed as necrosis of hepatocytes at 300 mg/kg, po administered as single dose measured after 14 days by H and E staining based analysis; format: organism-based; details: in vivo, 336 h, time 14 day
Plasmodium berghei [31] = assay: Antimalarial activity against Plasmodium berghei ANKA infected in Albino Swiss mouse assessed as reduction in parasitemia at 30 mg/kg, po administered for 4 consecutive days measured after day 7 relative to control; format: functional; parameters: scale not given: the % may be the effect or the level left; details: time 7 day
[32] = Acute toxicity in Albino Swiss mouse assessed as acidophilic cytoplasm with micro-steatosis in liver at 300 mg/kg, po administered as single dose measured after 14 days by H and E staining based analysis; format: organism-based; details: in vivo, 336 h, time 14 day
[33] = Acute toxicity in Albino Swiss mouse assessed as animal mortality at 300 mg/kg, po administered as single dose measured after 14 days; format: organism-based; details: in vivo, 336 h, time 14 day
[34] = Octanol-water partition coefficient, logP of the compound; format: physicochemical
[35] = Acute toxicity in Albino Swiss mouse assessed as acidophilic cytoplasm with macro-vacuoles in liver at 300 mg/kg, po administered as single dose measured after 14 days by H and E staining based analysis; format: organism-based; details: in vivo, 336 h, time 14 day
[36] = Acute toxicity in Albino Swiss mouse assessed as developmment-delimiting germinal center in spleen at 300 mg/kg, po administered as single dose measured after 14 days by H and E staining based analysis; format: organism-based; details: in vivo, 336 h, time 14 day
[37] = Acute toxicity in Albino Swiss mouse assessed as fusion of lymphoid follicles in spleen at 300 mg/kg, po administered as single dose measured after 14 days by H and E staining based analysis; format: organism-based; details: in vivo, 336 h, time 14 day
Plasmodium berghei [38] = assay: Antimalarial activity against Plasmodium berghei ANKA infected in Albino Swiss mouse assessed as half-survival time at 30 mg/kg, po administered for 4 consecutive days measured for 30 days (reference value: 16 day); format: functional; details: time 30 day
[39] = Acute toxicity in Albino Swiss mouse assessed as change in sensory function at 300 mg/kg, po administered as single dose measured after 14 days; format: organism-based; details: in vivo, 336 h, time 14 day
[40] = Hemolytic activity in human red blood cells type A assessed as hemoglobin release at 500 to 1000 uM incubated for 60 mins by spectrophotometry; format: toxicity, cell-based, Erythrocyte; details: dose 500-1000 µM, read-out: Activity
Plasmodium falciparum [41] = assay: Antimalarial activity against chloroquine-resistant Plasmodium falciparum W2 infected in human erythrocytes assessed as parasite growth inhibition incubated for 48 hrs by geimsa staining based microscopy; format: functional, organism-based; details: W2, Erythrocyte
[42] = Acute toxicity in Albino Swiss mouse assessed as change in urine color at 300 mg/kg, po administered as single dose measured after 14 days; format: organism-based; details: in vivo, 336 h, time 14 day
[43] = Acute toxicity in Albino Swiss mouse assessed as escape reaction at 300 mg/kg, po administered as single dose measured after 14 days; format: organism-based; details: in vivo, 336 h, time 14 day
[44] = Acute toxicity in Albino Swiss mouse assessed as change in defecation at 300 mg/kg, po administered as single dose measured after 14 days; format: organism-based; details: in vivo, 336 h, time 14 day
[45] = Selectivity index, ratio of CC50 for human HepG2 cells to IC50 for chloroquine-resistant Plasmodium falciparum W2 infected in human erythrocytes; format: toxicity, cell-based; details: read-out: Ratio CC50/IC50
[46] = Acute toxicity in Albino Swiss mouse assessed as aggressiveness at 300 mg/kg, po administered as single dose measured after 14 days; format: organism-based; details: in vivo, 336 h, time 14 day
[47] = Acute toxicity in Albino Swiss mouse assessed as activated macrophages in spleen at 300 mg/kg, po administered as single dose measured after 14 days by H and E staining based analysis; format: organism-based; details: in vivo, 336 h, time 14 day
[48] = Acute toxicity in Albino Swiss mouse assessed as change in urination volume at 300 mg/kg, po administered as single dose measured after 14 days; format: organism-based; details: in vivo, 336 h, time 14 day
Plasmodium falciparum [49] = assay: Induction of morphological changes in chloroquine-resistant Plasmodium falciparum W2 trophozoites assessed as degraded cytoplasm by TEM analysis; format: functional, organism-based
Plasmodium berghei [50] = assay: Antimalarial activity against Plasmodium berghei ANKA infected in Albino Swiss mouse assessed as half-survival time at 15 mg/kg, po administered for 4 consecutive days measured for 30 days (reference value: 16 day); format: functional; details: time 30 day
Plasmodium berghei [51] = assay: Antimalarial activity against Plasmodium berghei ANKA infected in Albino Swiss mouse assessed as reduction in parasitemia at 15 mg/kg, po administered for 4 consecutive days measured after day 5 relative to control; format: functional; parameters: scale not given: the % may be the effect or the level left; details: time 5 day
[52] = Toxicity in Albino Swiss mouse infected with Plasmodium berghei ANKA assessed as mortality rate at 15 to 30 mg/kg, po administered for 4 consecutive days measured for 14 days relative to control; format: organism-based; details: in vivo, dose 15-30 mg/kg, time 14 day, read-out: Activity
Plasmodium berghei [53] = assay: Antimalarial activity against Plasmodium berghei ANKA infected in Albino Swiss mouse assessed as reduction in parasitemia at 15 mg/kg, po administered for 4 consecutive days measured after day 7 relative to control; format: functional; parameters: scale not given: the % may be the effect or the level left; details: time 7 day

O=C1C=C(NCCn2cc(C3(O)CCCCC3)nn2)C(=O)c2ccccc21
Activity [1]: Non-Toxic
Activity [2]: Toxic
Activity (Plasmodium falciparum [3]): Active
Activity [4]: Non-Toxic
Activity [5]: Toxic
CC50 (HepG2): 441 µM
Activity [6]: Non-Toxic
Activity [7]: Toxic
CC50 at 24 h [8]: 1340 µM
Activity [9]: Non-Toxic
Activity (Plasmodium falciparum [10]): Active
Activity [11]: Toxic
Activity [12]: Toxic
Activity [13]: Non-Toxic
Activity [14]: Toxic
Activity [15]: Non-Toxic
Activity [16]: Toxic
hemolysis at 1 h [17]: < 40%
Activity [18]: Non-Toxic
Activity [19]: Non-Toxic
Activity [20]: Non-Toxic
Activity (Plasmodium falciparum [21]): Active
survival at 336 h [22]: 100%
Activity (Plasmodium falciparum [23]): Active
Activity [24]: Non-Toxic
Activity (Plasmodium berghei [25]): 38.5%
selectivity ratio [26]: 495
Activity [27]: Toxic
Activity [28]: Toxic
Activity [29]: Non-Toxic
Activity [30]: Toxic
Activity (Plasmodium berghei [31]): 35%
Activity [32]: Toxic
Activity [33]: Non-Toxic
logP [34]: 2.55
Activity [35]: Toxic
Activity [36]: Toxic
Activity [37]: Toxic
Survival (Plasmodium berghei [38]): 38.5 days
Activity [39]: Non-Toxic
hemolysis at 1 h, up to 1000 µM [40]: > 40%
IC50 (Plasmodium falciparum [41]): 2.7 µM
Activity [42]: Non-Toxic
Activity [43]: Non-Toxic
Activity [44]: Non-Toxic
selectivity ratio [45]: 163
Activity [46]: Non-Toxic
Activity [47]: Toxic
Activity [48]: Non-Toxic

CCN(CC)CCCC(C)Nc1ccnc2cc(Cl)ccc12 (stereo unspecified) [CHLOROQUINE]
Activity [1]: Non-Toxic
Activity (Plasmodium falciparum [49]): Active
Activity [4]: Non-Toxic
Survival (Plasmodium berghei [50]): 26 days
CC50 (HepG2): > 200 µM
Activity (Plasmodium berghei [51]): 95%
Activity [6]: Non-Toxic
CC50 at 24 h [8]: 35.8 µM
Activity [9]: Non-Toxic
Activity [13]: Non-Toxic
Activity [15]: Non-Toxic
mortality at 336 h [52]: 20%
Activity [18]: Non-Toxic
Activity [19]: Non-Toxic
Activity [20]: Non-Toxic
Activity [24]: Non-Toxic
Activity (Plasmodium berghei [25]): 99%
Activity [29]: Non-Toxic
Activity (Plasmodium berghei [31]): 98%
Survival (Plasmodium berghei [38]): 26 days
Activity [39]: Non-Toxic
Activity [42]: Non-Toxic
Activity [43]: Non-Toxic
Activity [44]: Non-Toxic
Activity [46]: Non-Toxic
Activity [48]: Non-Toxic
Activity (Plasmodium berghei [53]): 92%
